Reference: EP2061765B1, “Serine-threonine protein kinase and PARP modulators” (Senhwa Biosciences, Inc., priority 2006, dated 2008)

What was measured:
Assay in all cases: Cell proliferation assay (Alamar Blue)
Assay type in all cases: cell-based
H1299 = conditions: Homo sapiens, NCI-H1299, 96 h, H1299 cells, four days
Outline: (§1)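 4,000-5,000 cells/well; compound 4 d, 37°C, 5% CO2; Alamar Blue 4 h; fluorescence ex 544/em 590 nm. Medium-only wells as blank, untreated cells as control.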

PC3 = conditions: Homo sapiens, PC-3, 96 h, PC3 cells, four days
Outline: as §1

Hs578T = conditions: Homo sapiens, Hs-578T, 96 h, Hs578T cells, four days
Outline: as §1

Jurkat = conditions: Homo sapiens, 96 h, Jurkat cells, four days
Outline: as §1

HCT-116 = conditions: Homo sapiens, 96 h, HCT-116 cells, four days
MiaPaCa = conditions: Homo sapiens, MIA PaCa-2, 96 h, MiaPaCa cells, four days
Outline: as §1

A375 = conditions: Homo sapiens, A-375, 96 h, A375 cells, four days
Outline: as §1

A549 = conditions: Homo sapiens, 96 h, A549 cells, four days
Outline: as §1

MCF-7 = conditions: Homo sapiens, MCF7, 96 h, MCF-7 cells, four days
Outline: as §1

MDAMB231 = conditions: Homo sapiens, MDA-MB-231, 96 h, MDAMB231 cells, four days
Outline: as §1

LNCaP = conditions: Homo sapiens, 96 h, LNCaP cells, four days
Outline: as §1

K-562 = conditions: Homo sapiens, K562, 96 h, K-562 cells, four days
BxPC3 = conditions: Homo sapiens, BXPC-3, 96 h, BxPC3 cells, four days
Outline: as §1

PanC1 = conditions: Homo sapiens, PANC-1, 96 h, PanC1 cells, four days
Outline: as §1

SMILES | IC50 (H1299) [µM] | IC50 (PC3) [µM] | IC50 (Jurkat) [µM] | IC50 (HCT-116) [µM] | IC50 (MiaPaCa) [µM] | IC50 (BxPC3) [µM] | IC50 (PanC1) [µM] | IC50 (Hs578T) [µM] | further results
COC(=O)c1ccc2c(c1)nc(Nc1ccc(F)c(Cl)c1)c1ncncc12 [drawing 295] | 15.4 | 15.8 | 20.3 | > 10 | – | – | – | 3.7 | –
O=C(O)c1ccc2c(c1)nc(Nc1cccc(Cl)c1)c1ccncc12 [drawing 299] | 3.08 | 1.51 | 2.37 | 4.02 | 2.74 | – | – | 0.67 | IC50 (A375): 3.95 µM
C#Cc1cccc(Nc2nc3cc(C(=O)O)ccc3c3cncnc23)c1 [drawing 304] | 1.55 | 3.13 | 1.8 | 5.86 | 0.67 | – | – | 2.86 | IC50 (A375): 4.12 µM
Fc1cc(Nc2nc3cc(-c4nnn[nH]4)ccc3c3cnccc23)ccc1Cl [drawing 306] | > 50 | > 50 | 18.8 | > 10 | > 10 | – | – | – | –
CNc1ncc2c(n1)c(Nc1ccccc1)nc1cc(C(=O)O)ccc12 [drawing 307] | 2.42 | 3.14 | 0.73 | 2.99 | 1.09 | – | – | 1.84 | IC50 (A375): 1.92 µM
O=C(O)c1ccc2c(c1)nc(Nc1cccc(F)c1)c1ccncc12 [drawing 375] | – | – | – | – | – | – | – | – | IC50 (A549): 16.6 µM
Fc1cccc(Nc2nc3cc(-c4nnn[nH]4)ccc3c3cnccc23)c1 [drawing 381] | – | – | – | – | – | – | – | – | IC50 (MCF-7): > 50 µM; IC50 (MDAMB231): > 50 µM; IC50 (LNCaP): < 0.2 µM; IC50 (A549): > 50 µM
Fc1cc(Nc2nc3cc(-c4nnn[nH]4)ccc3c3cnccc23)ccc1Cl [drawing 382] | – | – | – | – | – | – | – | – | IC50 (K-562): > 50 µM; IC50 (MCF-7): 5.94 µM; IC50 (MDAMB231): > 50 µM; IC50 (LNCaP): 48.2 µM; IC50 (A549): > 50 µM
Clc1cccc(Nc2nc3cc(-c4nnn[nH]4)ccc3c3cnccc23)c1 [drawing 386] | – | – | – | – | – | – | – | – | IC50 (K-562): 31.2 µM; IC50 (MCF-7): > 50 µM; IC50 (MDAMB231): > 50 µM; IC50 (LNCaP): 37.4 µM; IC50 (A549): > 50 µM
N#Cc1cccc(Nc2nc3cc(C(=O)O)ccc3c3cnccc23)c1 [drawing 388] | – | – | – | – | – | – | – | – | IC50 (K-562): 9.15 µM; IC50 (MCF-7): 41 µM; IC50 (MDAMB231): 28.7 µM; IC50 (LNCaP): 15.5 µM; IC50 (A549): > 50 µM
C#Cc1cccc(Nc2nc3cc(C(=O)OC)ccc3c3cnc(NOC)nc23)c1 [drawing 495] | – | – | – | – | – | 40 | > 50 | – | –
COC(=O)c1ccc2c(c1)nc(Nc1cccc(Cl)c1)c1nc(NCCC(N)=O)ncc12 [drawing 496] | – | – | – | – | – | 2.62 | 25.5 | – | –
NC(=O)CCNc1ncc2c(n1)c(Nc1cccc(Cl)c1)nc1cc(C(=O)O)ccc12 [drawing 497] | – | – | – | – | – | 20.9 | > 50 | – | –
O=C(O)CCNc1ncc2c(n1)c(Nc1cccc(Cl)c1)nc1cc(C(=O)O)ccc12 [drawing 498] | – | – | – | – | – | 43.5 | > 50 | – | –
O=C(O)c1ccc2c(c1)nc(Nc1cc(F)cc(F)c1)c1nc(NC3CC3)ncc12 [drawing 501] | – | – | – | – | – | 14.9 | 16.1 | – | –
COc1cccc(Nc2nc3cc(C(=O)O)ccc3c3cnc(NC4CC4)nc23)c1 [drawing 503] | – | – | – | – | – | 8.68 | 3.48 | – | –
CN(C)CCNc1ncc2c(n1)c(Nc1ccc(F)c(Cl)c1)nc1cc(C(=O)O)ccc12 [drawing 504] | – | – | – | – | – | 1.52 | 44.9 | – | –
O=C(O)c1ccc2c(c1)nc(Nc1ccc(F)c(Cl)c1)c1nc(NCc3ccccn3)ncc12 [drawing 505] | – | – | – | – | – | 11.1 | > 50 | – | –
COC(CNc1ncc2c(n1)c(Nc1ccc(F)c(Cl)c1)nc1cc(C(=O)O)ccc12)OC [drawing 506] | – | – | – | – | – | 2.86 | 41.5 | – | –
NC(=O)c1ccc2c(c1)nc(Nc1cccc(C(F)(F)F)c1)c1nc(NC3CC3)ncc12 [drawing 507] | – | – | – | – | – | 0.33 | > 50 | – | –
O=C(NC1CC1)c1ccc2c(c1)nc(Nc1cccc(C(F)(F)F)c1)c1nc(NC3CC3)ncc12 [drawing 508] | – | – | – | – | – | 2.73 | 16 | – | –
CNC(=O)c1ccc2c(c1)nc(Nc1cccc(C(F)(F)F)c1)c1nc(NC3CC3)ncc12 [drawing 509] | – | – | – | – | – | 3 | 18.9 | – | –
O=C(O)c1ccc2c(c1)nc(Nc1ccccc1)c1nc(Nc3ccccc3)ncc12 [drawing 512] | – | – | – | – | – | 40.1 | 3.72 | – | –
CC(C)OC(=O)Nc1ccc2c(c1)nc(Nc1cccc(C(F)(F)F)c1)c1nc(NC3CC3)ncc12 [drawing 513] | – | – | – | – | – | 0.9 | 9.88 | – | –
CCOC(=O)CCNC(=O)c1ccc2c(c1)nc(Nc1cccc(C(F)(F)F)c1)c1nc(NC3CC3)ncc12 [drawing 514] | – | – | – | – | – | 8.76 | 0.44 | – | –

More lines, main results first:

IC50 (H1299) [µM] | IC50 (PC3) [µM] | IC50 (Jurkat) [µM] | IC50 (HCT-116) [µM] | IC50 (MiaPaCa) [µM] | IC50 (BxPC3) [µM] | IC50 (PanC1) [µM] | SMILES | IC50 (Hs578T) [µM] | further results
3.8 | 17.9 | 23.8 | > 10 | – | – | – | CN(C)CCNc1nc2cc(C(=O)O)ccc2c2cnccc12 | 12.9 | –
13.1 | 11.3 | 6.83 | 15 | – | – | – | COC(=O)c1ccc2c(c1)nc(Nc1ccccc1)c1ccncc12 | 4.78 | –
10.7 | 17.4 | 6.52 | > 10 | > 10 | – | – | COc1cccc(Nc2nc3cc(C(=O)O)ccc3c3cnccc23)c1 | 12.9 | –
8.46 | 9.02 | 4.25 | 3.94 | – | – | – | COC(=O)c1ccc2c(c1)nc(Nc1ccc(F)c(Cl)c1)c1ccncc12 | 2.62 | –
7.16 | 11.3 | 3.4 | 15 | – | – | – | COC(=O)c1ccc2c(c1)nc(Nc1cccc(OC)c1)c1ccncc12 | 1.82 | –
6.84 | 15.4 | 23.7 | 13.3 | 7.51 | – | – | O=C(O)c1ccc2c(c1)nc(Nc1ccccc1)c1ccncc12 [drawing 286] | 14.9 | IC50 (A375): 18.4 µM
3.08 | 4.86 | 2.68 | 4.34 | 3.06 | – | – | O=C(O)c1ccc2c(c1)nc(Nc1ccc(F)c(Cl)c1)c1ccncc12 [drawing 291] | 3.31 | IC50 (A375): 3.21 µM
7.55 | 18.8 | 4.29 | – | 1.22 | – | – | O=C(O)c1ccc2c(c1)nc(Nc1ccc(F)c(Cl)c1)c1ncncc12 [drawing 296] | 9.7 | –
8.32 | 9.23 | 3.19 | – | 6.86 | – | – | O=C(O)c1ccc2c(c1)nc(Nc1cccc(F)c1)c1ccncc12 [drawing 298] | 5.89 | –
6.62 | 7.5 | 2.59 | 4.06 | 0.85 | – | – | O=C(O)c1ccc2c(c1)nc(Nc1cc(F)cc(F)c1)c1ncncc12 [drawing 301] | 5.9 | IC50 (A375): 2.63 µM
7.24 | 4.71 | 1.89 | 7.1 | 3.36 | – | – | O=C(O)c1ccc2c(c1)nc(Nc1cccc(F)c1)c1ncncc12 [drawing 302] | 3.43 | IC50 (A375): 5.11 µM
3.01 | 9.14 | 0.88 | 7.19 | 2.09 | – | – | O=C(O)c1ccc2c(c1)nc(Nc1cccc(Cl)c1)c1ncncc12 [drawing 303] | 11.2 | IC50 (A375): 5.45 µM
> 50 | > 50 | 9.43 | > 10 | > 10 | – | – | Fc1cccc(Nc2nc3cc(-c4nnn[nH]4)ccc3c3cnccc23)c1 [drawing 305] | – | –
3.65 | 16.8 | 2.78 | – | 3.85 | – | – | C#Cc1cccc(Nc2nc3cc(C(=O)O)ccc3c3cnccc23)c1 [drawing 309] | 4.03 | IC50 (A375): 7.36 µM
> 50 | 46.6 | 14.2 | > 10 | > 10 | – | – | Clc1cccc(Nc2nc3cc(-c4nnn[nH]4)ccc3c3cnccc23)c1 [drawing 310] | – | –
– | 26.4 | 22 | > 10 | > 10 | – | – | N#Cc1cccc(Nc2nc3cc(C(=O)O)ccc3c3cnccc23)c1 [drawing 312] | 35.6 | –
– | – | – | – | – | 2.23 | 38 | Cc1cccc(Nc2nc3cc(C(=O)O)ccc3c3cnccc23)c1 [drawing 499] | – | –
– | – | – | – | – | 2.6 | 27.2 | O=C(O)c1ccc2c(c1)nc(Nc1cccc(C(F)(F)F)c1)c1ccncc12 [drawing 500] | – | –
– | – | – | – | – | 9.89 | 2.81 | O=C(O)c1ccc2c(c1)nc(Nc1cccc(F)c1)c1nc(NC3CC3)ncc12 [drawing 502] | – | –
– | – | – | – | – | 3.16 | 20.9 | O=C(O)c1ccc2c(c1)nc(Nc1ccc(F)c(Cl)c1)c1nc(NCc3cccnc3)ncc12 [drawing 510] | – | –
